Results taken from patent US7897750B2, “Strategies for gene expression analysis” (Althea Technologies, Inc., priority 2002, dated 2011).

Tested on: HepG2 cells
Assay: Multiplex rtPCR gene expression time course (15-plex) in treated cells
Assay type: cell-based
Conditions: 5×10^4 HepG2 cells, 25 μM, timepoints T=0, 2, 4, 8, 24, 48, 120 hours, triplicate, FIG. 9
Method: Cells were treated in triplicate and timepoints were collected at T=0, 2, 4, 8, 24, 48, and 120 hours. RNA was isolated using Qiagen's RNeasy kit for 96 well plates and the concentration was monitored using a Ribogreen Assay (Molecular Probes). The concentration of RNA from each sample was normalized to 5 ng/μl. rtPCR was carried out using 25 ng of RNA from each sample and the products were analyzed using an ABI 3100 Genetic Analyzer. Gene expression is expressed as a ratio to that of GAPDH. The multiplex included the following list of genes.
CV's for all genes and data points within the experiment ranged from a few percent to 20%.

CC[C@H]1CN2CCc3cc(OC)c(OC)cc3[C@@H]2C[C@@H]1C[C@H]1NCCc2cc(OC)c(OC)cc21 [emitine]
GRO1 gene expression, ratio to that of GAPDH: clear trends of induction
Il-8 gene expression, ratio to that of GAPDH: clear trends of induction
